Laboratory results from PMC5218480 (PLoS ONE, 2017).

System: MV-4-11 cells
Assay: Gene expression microarray analysis (Affymetrix PrimeView) and GSEA
Format: cell-based, human
Set-up: RFU PODN (11730768_x_at) / Fold change /veh PODN (11730768_x_at) / RFU LINC00158 (11744669_a_at) / Fold change /veh LINC00158 (11744669_a_at) / RFU DUSP10 (11751237_a_at) / Fold change /veh DUSP10 (11751237_a_at) / RFU ID3 (11757404_x_at) / Fold change /veh ID3 (11757404_x_at) / RFU PLEKHG5 (11737974_s_at) / Fold change /veh PLEKHG5 (11737974_s_at) / RFU LRRC4B (11730491_at) / Fold change /veh LRRC4B (11730491_at) / RFU GIMAP4 (11747438_a_at) / Fold change /veh GIMAP4 (11747438_a_at) / RFU KRT8 (11758183_x_at) / Fold change /veh KRT8 (11758183_x_at) / RFU CNN1 (11734310_a_at) / Fold change /veh CNN1 (11734310_a_at) / RFU VPS37D (11726825_at) / Fold change /veh VPS37D (11726825_at) / RFU C10orf10 (11716522_x_at) / Fold change /veh C10orf10 (11716522_x_at) / RFU KIR2DL2 /// KIR2DL4 /// KIR2DL5A /// KIR2DL5B /// KIR2DS1 /// KIR2DS2 /// KIR2DS3 /// KIR2DS4 /// KIR3DL3 /// KIR3DL3 /// KIR3DS1 (11738374_at) / Fold change /veh KIR2DL2 /// KIR2DL4 /// KIR2DL5A /// KIR2DL5B /// KIR2DS1 /// KIR2DS2 /// KIR2DS3 /// KIR2DS4 /// KIR3DL3 /// KIR3DL3 /// KIR3DS1 (11738374_at) / RFU C1QL1 (11718748_at) / Fold change /veh C1QL1 (11718748_at) / RFU TMPRSS4 (11747572_a_at) / Fold change /veh TMPRSS4 (11747572_a_at) / RFU HAMP (11756126_x_at) / Fold change /veh HAMP (11756126_x_at) / RFU RNFT2 (11725882_a_at) / Fold change /veh RNFT2 (11725882_a_at) / RFU NR4A2 (11747474_a_at) / Fold change /veh NR4A2 (11747474_a_at) / RFU ABCC12 (11746883_a_at) / Fold change /veh ABCC12 (11746883_a_at) / RFU TMEM136 (11760407_x_at) / Fold change /veh TMEM136 (11760407_x_at) / RFU CLDN22 /// WWC2 (11732394_at) / Fold change /veh CLDN22 /// WWC2 (11732394_at) / RFU HLA-DPB1 (11760878_x_at) / Fold change /veh HLA-DPB1 (11760878_x_at) / RFU SPINT1 (11716480_a_at) / Fold change /veh SPINT1 (11716480_a_at) / RFU GAP43 (11754022_s_at) / Fold change /veh GAP43 (11754022_s_at) / RFU A4GNT (11735810_at) / Fold change /veh A4GNT (11735810_at) / RFU PRB3 (11715151_x_at) / Fold change /veh PRB3 (11715151_x_at) / RFU TUBB4B (11761932_at) / Fold change /veh TUBB4B (11761932_at) / RFU CAPN14 (11732068_a_at) / Fold change /veh CAPN14 (11732068_a_at) / RFU TMCC2 (11721928_a_at) / Fold change /veh TMCC2 (11721928_a_at) / RFU IRGQ (11745062_a_at) / Fold change /veh IRGQ (11745062_a_at) / RFU FAM174B (11720279_a_at) / Fold change /veh FAM174B (11720279_a_at) / RFU TMPRSS4 (11748680_a_at) / Fold change /veh TMPRSS4 (11748680_a_at) / RFU FAM212B (11763350_a_at) / Fold change /veh FAM212B (11763350_a_at) / RFU PLEKHG5 (11743358_a_at) / Fold change /veh PLEKHG5 (11743358_a_at) / RFU ZSCAN30 (11745921_a_at) / Fold change /veh ZSCAN30 (11745921_a_at) / RFU CMKLR1 (11741424_a_at) / Fold change /veh CMKLR1 (11741424_a_at) / RFU LOC101060620 /// MAPK8IP1 (11723275_at) / Fold change /veh LOC101060620 /// MAPK8IP1 (11723275_at) / RFU SPTSSB (11747773_x_at) / Fold change /veh SPTSSB (11747773_x_at) / RFU PRSS12 (11739890_at) / Fold change /veh PRSS12 (11739890_at) / RFU BIN1 (11741810_x_at) / Fold change /veh BIN1 (11741810_x_at) / RFU WNT11 (11732464_a_at) / Fold change /veh WNT11 (11732464_a_at) / RFU C10orf10 (11716521_a_at) / Fold change /veh C10orf10 (11716521_a_at) / RFU C5orf56 (11738089_at) / Fold change /veh C5orf56 (11738089_at) / RFU CYB561 (11721691_x_at) / Fold change /veh CYB561 (11721691_x_at) / RFU ANKRD19P (11752326_a_at) / Fold change /veh ANKRD19P (11752326_a_at) / RFU OR2T12 /// OR2T33 /// OR2T8 (11738714_s_at) / Fold change /veh OR2T12 /// OR2T33 /// OR2T8 (11738714_s_at) / RFU VCAN (11748164_a_at) / Fold change /veh VCAN (11748164_a_at) / RFU JSRP1 (11732532_at) / Fold change /veh JSRP1 (11732532_at) / RFU KRTAP10-11 (11738290_x_at) / Fold change /veh KRTAP10-11 (11738290_x_at) / RFU MYO3A (11730013_a_at) / Fold change /veh MYO3A (11730013_a_at) / RFU EBF3 (11725865_a_at) / Fold change /veh EBF3 (11725865_a_at) / RFU CAMK2N1 (11719241_x_at) / Fold change /veh CAMK2N1 (11719241_x_at) / RFU C5orf56 (11738088_a_at) / Fold change /veh C5orf56 (11738088_a_at) / RFU OLFML3 (11715873_a_at) / Fold change /veh OLFML3 (11715873_a_at) / RFU LOC100653217 /// NTM (11731650_a_at) / Fold change /veh LOC100653217 /// NTM (11731650_a_at) / RFU MAPK11 (11762145_a_at) / Fold change /veh MAPK11 (11762145_a_at) / RFU FIZ1 (11724087_x_at) / Fold change /veh FIZ1 (11724087_x_at) / RFU OASL (11726364_x_at) / Fold change /veh OASL (11726364_x_at) / RFU SOX15 (11748057_x_at) / Fold change /veh SOX15 (11748057_x_at) / RFU CD79A (11719716_a_at) / Fold change /veh CD79A (11719716_a_at) / RFU HIST1H1D (11736915_at) / Fold change /veh HIST1H1D (11736915_at) / RFU CASKIN2 (11723855_a_at) / Fold change /veh CASKIN2 (11723855_a_at) / RFU LOC730098 (11760151_x_at) / Fold change /veh LOC730098 (11760151_x_at) / RFU OR4N2 (11742367_at) / Fold change /veh OR4N2 (11742367_at) / RFU PRRT2 (11749266_a_at) / Fold change /veh PRRT2 (11749266_a_at) / RFU SNX32 (11753110_a_at) / Fold change /veh SNX32 (11753110_a_at) / RFU CDHR5 (11726645_a_at) / Fold change /veh CDHR5 (11726645_a_at) / RFU RCAN1 (11760418_a_at) / Fold change /veh RCAN1 (11760418_a_at) / RFU FAM167A (11723789_a_at) / Fold change /veh FAM167A (11723789_a_at) / RFU FAM26E (11764081_at) / Fold change /veh FAM26E (11764081_at) / RFU ISYNA1 (11749810_s_at) / Fold change /veh ISYNA1 (11749810_s_at) / RFU ACY1 (11761880_at) / Fold change /veh ACY1 (11761880_at) / RFU 11764098_at / Fold change /veh 11764098_at / RFU SAMD14 (11745864_x_at) / Fold change /veh SAMD14 (11745864_x_at) / RFU NPB (11741838_a_at) / Fold change /veh NPB (11741838_a_at) / RFU TMPRSS6 (11731388_a_at) / Fold change /veh TMPRSS6 (11731388_a_at) / RFU KRTAP10-2 (11738614_at) / Fold change /veh KRTAP10-2 (11738614_at) / RFU ARHGAP8 /// PRR5-ARHGAP8 (11727945_x_at) / Fold change /veh ARHGAP8 /// PRR5-ARHGAP8 (11727945_x_at) / RFU KRTAP5-7 /// NADSYN1 (11734609_at) / Fold change /veh KRTAP5-7 /// NADSYN1 (11734609_at) / RFU RASL12 (11751679_a_at) / Fold change /veh RASL12 (11751679_a_at) / RFU CDKN2B (11736163_a_at) / Fold change /veh CDKN2B (11736163_a_at) / RFU PRF1 (11729649_at) / Fold change /veh PRF1 (11729649_at) / RFU, ZNF638 /// ZNF638-IT1 / Fold change vs veh, ZNF638 /// ZNF638-IT1 / RFU, PANK3 / Fold change vs veh, PANK3 / RFU, SH3YL1 / Fold change vs veh, SH3YL1 / RFU, ZEB2 / Fold change vs veh, ZEB2 / RFU, NRIP1 / Fold change vs veh, NRIP1 / RFU, PTTG1IP / Fold change vs veh, PTTG1IP / RFU, CAPN2 / Fold change vs veh, CAPN2 / RFU, MED14 / Fold change vs veh, MED14 / RFU, SNORA58 / Fold change vs veh, SNORA58 / RFU, C1orf63 / Fold change vs veh, C1orf63 / RFU, LRRFIP1 / Fold change vs veh, LRRFIP1 / RFU, NDUFAF7 / Fold change vs veh, NDUFAF7 / RFU, SLC12A2 / Fold change vs veh, SLC12A2 / RFU, IBTK / Fold change vs veh, IBTK / RFU, ESF1 / Fold change vs veh, ESF1 / Fold change vs veh, TMEM50B / RFU, TAOK1 / Fold change vs veh, TAOK1 / RFU, ACBD3 / Fold change vs veh, ACBD3 / RFU, TMA16 / Fold change vs veh, TMA16 / RFU, RWDD3 / Fold change vs veh, RWDD3 / RFU, BCAT1 / Fold change vs veh, BCAT1 / RFU, EDEM3 / Fold change vs veh, EDEM3 / RFU, TMEM33 / Fold change vs veh, TMEM33 / RFU, WDR75 / Fold change vs veh, WDR75 / RFU, AHCTF1 / Fold change vs veh, AHCTF1 / RFU, TFRC / Fold change vs veh, TFRC / RFU, ZDHHC17 / Fold change vs veh, ZDHHC17 / RFU, NOM1 / Fold change vs veh, NOM1 / RFU, ARL8B / Fold change vs veh, ARL8B / RFU, ZBTB11 / Fold change vs veh, ZBTB11 / RFU, TAMM41 / Fold change vs veh, TAMM41 / RFU, KIAA1704 /// LOC100996395 / Fold change vs veh, KIAA1704 /// LOC100996395 / RFU, ING1 / Fold change vs veh, ING1 / RFU, TRMT61B / Fold change vs veh, TRMT61B / RFU, FUBP3 / Fold change vs veh, FUBP3 / RFU, TP53 / Fold change vs veh, TP53 / RFU, TNKS2 / Fold change vs veh, TNKS2 / RFU, ZFP14 / Fold change vs veh, ZFP14 / RFU, ACTR2 / Fold change vs veh, ACTR2 / RFU, PPP3R1 / Fold change vs veh, PPP3R1 / RFU, PIK3R1 / Fold change vs veh, PIK3R1 / RFU, HNRNPA1 / Fold change vs veh, HNRNPA1 / RFU, RNF170 / Fold change vs veh, RNF170 / RFU, ZNF28 / Fold change vs veh, ZNF28 / RFU, RNGTT / Fold change vs veh, RNGTT / RFU, OGT / Fold change vs veh, OGT / RFU, BRD1 / Fold change vs veh, BRD1 / RFU, MARS / Fold change vs veh, MARS / RFU, ZNF655 / Fold change vs veh, ZNF655 / RFU, FAHD1 / Fold change vs veh, FAHD1 / RFU, BDP1 / Fold change vs veh, BDP1 / RFU, LRRCC1 / Fold change vs veh, LRRCC1 / RFU, ARID1A / Fold change vs veh, ARID1A / RFU, ZNF146 / Fold change vs veh, ZNF146 / RFU, ZNF330 / Fold change vs veh, ZNF330 / RFU, GPN3 / Fold change vs veh, GPN3 / RFU, C9orf123 / Fold change vs veh, C9orf123 / RFU, N4BP2L2 / Fold change vs veh, N4BP2L2 / RFU, ARFIP1 / Fold change vs veh, ARFIP1 / RFU, FAM179B / Fold change vs veh, FAM179B / RFU, BCL10 / Fold change vs veh, BCL10 / RFU, UHRF1BP1L / Fold change vs veh, UHRF1BP1L / RFU, BET1 / Fold change vs veh, BET1 / RFU, CNOT2 / Fold change vs veh, CNOT2 / RFU, ZNF268 / Fold change vs veh, ZNF268 / Fold change vs veh, ZNF507 / RFU, DGCR2 / Fold change vs veh, DGCR2 / RFU, WDSUB1 / Fold change vs veh, WDSUB1 / Fold change vs veh, HSP90B1 /// MIR3652 / RFU, ADSS / Fold change vs veh, ADSS / RFU, GK / Fold change vs veh, GK / RFU, ZNF148 / Fold change vs veh, ZNF148 / RFU, TAF9 / Fold change vs veh, TAF9 / RFU, SLC1A5 / Fold change vs veh, SLC1A5 / RFU, SLMO2 / Fold change vs veh, SLMO2 / RFU, ABCC4 / Fold change vs veh, ABCC4 / RFU, LOC101060439 /// RAP1B / Fold change vs veh, LOC101060439 /// RAP1B / RFU, RFX7 / Fold change vs veh, RFX7 / RFU, GTPBP10 / Fold change vs veh, GTPBP10 / RFU, CNEP1R1 / Fold change vs veh, CNEP1R1 / RFU, BIVM-ERCC5 /// ERCC5 / Fold change vs veh, BIVM-ERCC5 /// ERCC5 / RFU, ILF3 / Fold change vs veh, ILF3 / RFU 11762660_at / Fold change /veh 11762660_at / RFU VCAN (11757783_s_at) / Fold change /veh VCAN (11757783_s_at) / RFU DDX43 (11728927_at) / Fold change /veh DDX43 (11728927_at) / RFU KRT8 (11758188_x_at) / Fold change /veh KRT8 (11758188_x_at) / RFU NKD1 (11759106_at) / Fold change /veh NKD1 (11759106_at) / RFU SRD5A1 (11742802_a_at) / Fold change /veh SRD5A1 (11742802_a_at) / RFU TPSAB1 /// TPSB2 (11721975_s_at) / Fold change /veh TPSAB1 /// TPSB2 (11721975_s_at) / RFU GSTM3 (11746129_a_at) / Fold change /veh GSTM3 (11746129_a_at) / RFU IL23R (11737362_x_at) / Fold change /veh IL23R (11737362_x_at) / RFU TMEM51 (11727254_a_at) / Fold change /veh TMEM51 (11727254_a_at) / RFU PIWIL2 (11732686_x_at) / Fold change /veh PIWIL2 (11732686_x_at) / RFU ORM1 (11744905_x_at) / Fold change /veh ORM1 (11744905_x_at) / RFU CCDC152 (11743942_at) / Fold change /veh CCDC152 (11743942_at) / RFU ECM1 (11717891_a_at) / Fold change /veh ECM1 (11717891_a_at) / RFU IL23R (11748794_a_at) / Fold change /veh IL23R (11748794_a_at) / RFU TNFAIP8L3 (11732012_x_at) / Fold change /veh TNFAIP8L3 (11732012_x_at) / RFU MBOAT4 (11741988_at) / Fold change /veh MBOAT4 (11741988_at) / RFU 11764193_at / Fold change /veh 11764193_at / RFU TMEM53 (11763286_at) / Fold change /veh TMEM53 (11763286_at) / RFU MAGEB2 (11727129_at) / Fold change /veh MAGEB2 (11727129_at) / RFU TMEM200A (11744735_a_at) / Fold change /veh TMEM200A (11744735_a_at) / RFU CCDC152 (11751479_a_at) / Fold change /veh CCDC152 (11751479_a_at) / RFU FAM211A (11726209_a_at) / Fold change /veh FAM211A (11726209_a_at) / RFU RGS16 (11746705_a_at) / Fold change /veh RGS16 (11746705_a_at) / RFU VCAN (11755009_s_at) / Fold change /veh VCAN (11755009_s_at) / RFU RHOB (11743442_s_at) / Fold change /veh RHOB (11743442_s_at) / RFU RGS16 (11720943_a_at) / Fold change /veh RGS16 (11720943_a_at) / RFU RGS16 (11720944_at) / Fold change /veh RGS16 (11720944_at) / RFU, VPS4B / Fold change vs veh, VPS4B / RFU, CREB1 / Fold change vs veh, CREB1 / RFU, DNAJC13 / Fold change vs veh, DNAJC13 / RFU, GNAQ / Fold change vs veh, GNAQ / RFU, CDK5R1 / Fold change vs veh, CDK5R1 / RFU, ZRANB3 / Fold change vs veh, ZRANB3 / RFU, CUL4A / Fold change vs veh, CUL4A / RFU, CCNY / Fold change vs veh, CCNY / RFU, UFL1 / Fold change vs veh, UFL1 / RFU, COG3 / Fold change vs veh, COG3 / RFU, DIAPH2 / Fold change vs veh, DIAPH2 / RFU, SKA2 / Fold change vs veh, SKA2 / RFU, AFF3 / Fold change vs veh, AFF3 / RFU, LMF1 / Fold change vs veh, LMF1 / RFU, IPO11 / Fold change vs veh, IPO11 / RFU, DFFB / Fold change vs veh, DFFB / RFU, FOXP1 / Fold change vs veh, FOXP1 / RFU, CARD8 / Fold change vs veh, CARD8 / RFU, STRN3 / Fold change vs veh, STRN3 / RFU, ADK / Fold change vs veh, ADK / RFU, RASSF2 / Fold change vs veh, RASSF2 / RFU, WIPF1 / Fold change vs veh, WIPF1 / RFU, LARP1B / Fold change vs veh, LARP1B / RFU, RASA1 / Fold change vs veh, RASA1 / RFU, RB1 / Fold change vs veh, RB1 / RFU, PPFIA1 / Fold change vs veh, PPFIA1 / RFU, MAT2A / Fold change vs veh, MAT2A / RFU, CCT5 / Fold change vs veh, CCT5 / RFU, WDR92 / Fold change vs veh, WDR92 / RFU, CUX1 / Fold change vs veh, CUX1 / RFU, TTC7A / Fold change vs veh, TTC7A / RFU, TMEM135 / Fold change vs veh, TMEM135 / RFU, DEPTOR / Fold change vs veh, DEPTOR / RFU, CPM / Fold change vs veh, CPM / RFU, DNAJB6 / Fold change vs veh, DNAJB6 / RFU, CACNA2D3 / Fold change vs veh, CACNA2D3 / RFU, DTX4 / Fold change vs veh, DTX4 / RFU, TFCP2 / Fold change vs veh, TFCP2 / RFU, GMCL1 /// GMCL1P1 / Fold change vs veh, GMCL1 /// GMCL1P1 / RFU, AEBP2 / Fold change vs veh, AEBP2 / RFU, SNHG1 /// SNORD22 /// SNORD25 /// SNORD26 /// SNORD27 /// SNORD28 /// SNORD29 /// SNORD31 / Fold change vs veh, SNHG1 /// SNORD22 /// SNORD25 /// SNORD26 /// SNORD27 /// SNORD28 /// SNORD29 /// SNORD31 / Fold change (Aza/veh), C12orf56 (ProbeSet 11735607_a_at) / Fold change (ACY-1035/veh), C12orf56 (ProbeSet 11735607_a_at) / Fold change (Aza/veh), FGFR1OP (ProbeSet 11751329_s_at) / Fold change (ACY-1035/veh), FGFR1OP (ProbeSet 11751329_s_at) / Fold change (Aza/veh), VPS36 (ProbeSet 11739960_a_at) / Fold change (ACY-1035/veh), VPS36 (ProbeSet 11739960_a_at) / RFU SYPL1 (11715823_x_at) / Fold change /veh SYPL1 (11715823_x_at) / RFU IGFBP7 (11715501_s_at) / Fold change /veh IGFBP7 (11715501_s_at) / RFU REEP3 (11722064_at) / Fold change /veh REEP3 (11722064_at) / RFU IGLL1 (11728026_x_at) / Fold change /veh IGLL1 (11728026_x_at): dose or concentration left out as unconfirmed
Details: MV-4-11 cells, 48 hours

Compound: Nc1ncn([C@@H]2O[C@H](CO)[C@@H](O)[C@H]2O)c(=O)n1 [azacitidine]
- Fold change /veh NR4A2 (11747474_a_at): 0.97
